Data taken from PMC3023147 (Protein & cell, 2010).

Target: T1, mTAT (mouse tyrosine aminotransferase) (Mus musculus, UniProt Q8QZR1)
T1 sequence (Q8QZR1 41-442): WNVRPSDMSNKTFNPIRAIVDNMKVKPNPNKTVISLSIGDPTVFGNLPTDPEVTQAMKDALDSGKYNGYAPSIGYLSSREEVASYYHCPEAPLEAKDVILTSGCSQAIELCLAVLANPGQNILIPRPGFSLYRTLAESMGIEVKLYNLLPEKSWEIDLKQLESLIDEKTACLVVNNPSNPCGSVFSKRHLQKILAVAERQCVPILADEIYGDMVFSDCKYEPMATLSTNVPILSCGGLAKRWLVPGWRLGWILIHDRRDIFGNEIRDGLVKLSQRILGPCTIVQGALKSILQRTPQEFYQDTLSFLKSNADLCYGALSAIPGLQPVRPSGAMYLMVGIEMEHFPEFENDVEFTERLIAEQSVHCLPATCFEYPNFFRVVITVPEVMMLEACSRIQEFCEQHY
Test: X-ray crystal structure, […] Å
Assay type: binding
Conditions: covalent; internal Schiff base with Lys280; pH 6.8

In the case of `Cc1ncc(COP(=O)(O)O)c(C=O)c1O` [PLP], the “X-ray crystal structure, 2.9 Å” value is reported as “Residual electron density clearly revealed the presence of covalently bound PLP in the active center”.
